Here are results for 2 compounds from US12213480B2, “Biocidal formulation” (For Spills Ltd., priority 2018, dated 2025).

Assay in all cases: Suspension test of biocide with or without perlite, 1 minute contact
The test system of experiment [1] is Staphylococcus aureus ATCC 6538.
Experiment [2] deals with Pseudomonas aeruginosa ATCC 15442.
Experiment [3] deals with Aspergillus brasiliensis ATCC 16404.

Structures are written as SMILES.

For the compound `CC1(C)C(=O)N(Cl)C(=O)N1Br` [BDCMH], the “R reduction in viability” value is on record as 1.92 Log 10 in experiment [1], 1.00 Log 10 in experiment [2] and −0.01 Log 10 in experiment [3]. For the same compound, the Vc viable count in experiment [1] (dilution −1, duplicate plates) was >330; >330 cfu; in experiment [1] (dilution −2, duplicate plates), >330; >330 cfu; in experiment [2] (dilution −1, duplicate plates), >330; >330 cfu; in experiment [2] (dilution −2, duplicate plates), >330; >330 cfu; in experiment [2] (dilution −3, duplicate plates) it was >330; >330 cfu; in experiment [3] (dilution N, duplicate plates) it was >165; >165 cfu. Also, the Vc viable count in experiment [3] (dilution −1, duplicate plates) was >165; >165 cfu; in experiment [3] (dilution −2, duplicate plates) it was >165; >165 cfu; in experiment [3] (dilution −3, duplicate plates), >165; >165 cfu.
Regarding `O=c1nc([O-])n(Cl)c(=O)n1Cl.[Na+]` [Sodium Dichloroisocyanurate, sodium dichloroisocyanurate], the “R reduction in viability” value in experiment [1] is greater than 6.23 Log 10; in experiment [2] it was 3.71 Log 10; in experiment [3], 2.84 Log 10. The Vc viable count in experiment [3] (dilution N, duplicate plates) is on record as >165; >165 cfu.
